US9023789B2, “Amylin analogs and pharmaceutical compositions thereof” (Novo Nordisk A/S, priority 2012, dated 2015)
Numbered stars: 1 amine (or outer) side, 2 acyl side, 3 side chain; on linkers, the order of the positions; unused ones are H or OH. Bridge positions count the residues as written; N and C are the ends. Side chains are listed from the residue outwards. Peptide text beside a SMILES is read from it. * marks the point of attachment. C20 diacid = O=C(O)CCCCCCCCCCCCCCCCCCC(=O)*; γGlu = O=C(O)[C@H](CCC(=O)[*:2])N[*:1]

Columns and labels:
[1] = ASSAY (III) ThT fibrillation assay for physical stability; format: physicochemical
In short: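 Formulations with 1 μM ThT, pH adjusted as required, incubated at 37 °C with 960 rpm orbital shaking; fluorescence (ex 444/em 485 nm) read every 20 min. Fibrillation reported as mean ThT fluorescence ± SD of 4–8 replicates at time points; polypeptide concentration measured by reverse-phase HPLC before and after, post-centrifugation.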

[2] = target: T1, human calcitonin (a) receptor in BHK570 cells (Homo sapiens, UniProt P30988); experiment: ASSAY (II)a functional assay, human calcitonin receptor (CRE luciferase); format: cell-based; conditions: read-out: hCTR funct. EC50
T1 construct: expressed in transfected cells
T1 sequence (P30988 25-474): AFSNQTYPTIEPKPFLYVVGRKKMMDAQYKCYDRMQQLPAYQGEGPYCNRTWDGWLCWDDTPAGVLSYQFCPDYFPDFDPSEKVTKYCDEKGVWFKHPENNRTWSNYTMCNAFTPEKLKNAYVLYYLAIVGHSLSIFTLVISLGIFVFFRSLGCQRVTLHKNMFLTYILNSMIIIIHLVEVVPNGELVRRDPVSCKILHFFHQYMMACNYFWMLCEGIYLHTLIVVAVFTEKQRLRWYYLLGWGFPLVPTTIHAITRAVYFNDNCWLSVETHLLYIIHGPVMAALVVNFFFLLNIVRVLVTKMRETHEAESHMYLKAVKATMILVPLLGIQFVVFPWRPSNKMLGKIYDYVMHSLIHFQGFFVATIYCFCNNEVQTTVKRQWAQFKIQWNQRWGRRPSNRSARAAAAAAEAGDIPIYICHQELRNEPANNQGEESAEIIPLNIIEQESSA
In short: (§1)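 Cells were seeded and cultured overnight, then incubated with standard or sample for 3 h at 37° C in serum-containing medium at pH 7.4. The medium was then swapped for PBS, LucLite was added for 30 min at room temperature, and luminescence was recorded. Cells were BHK with CRE-luc and calcitonin receptor, ± RAMP-3.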

[3] = target: T2, human calcitonin receptor (Homo sapiens, UniProt P30988); experiment: ASSAY (VII) binding to the human calcitonin receptor (SPA, 125I-Calcitonin); conditions: read-out: hCTR bind IC50;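 further: cell membranes (35 ng/µL) combined with SPA beads in 40 µL of pH 7.4 Hepes buffer, 384-well format, signal counted on a TopCounter instrument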
T2 construct: expressed in transfected cells
T2 sequence (P30988 25-474): T1 sequence (P30988 25-474)

[4] = target: T3, human amylin 3(a) receptor (human calcitonin receptor + RAMP-3) in BHK570 cells (Homo sapiens, UniProt O60896+P30988); experiment: ASSAY (II)a functional assay, human amylin receptor (CRE luciferase); format: cell-based; conditions: for EC50: human amylin receptor functional potency, assay (II), read-out: hAmylin-R funct. EC50
T3 construct: expressed in transfected cells
T3 sequence (O60896 24-148, one chain of several): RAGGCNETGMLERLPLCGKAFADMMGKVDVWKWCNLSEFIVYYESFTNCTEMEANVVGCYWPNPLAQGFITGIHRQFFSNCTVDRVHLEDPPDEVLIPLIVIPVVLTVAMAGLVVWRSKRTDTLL
In short: as §1

[5] = hCTR funct. EC50 divided by hAmylin-R funct. EC50
[6] = hCTR funct. EC50 over hAmylin-R funct. EC50
[7] = human functional selectivity: hCTR funct. EC50 / hAmylin-R funct. EC50

| SMILES | ThT pH 4.0 lag time (h) [1] [h] | EC50 [2] [nM] | IC50 [3] [nM] | Ratio hCT/hAmylin funct. ([4]; hCTR funct. EC50 / hAmylin-R funct. EC50) | Ratio hCT/hAmylin funct. [4, 5] | Ratio hCT/hAmylin funct. [4, 6] | EC50 [4] [nM] | Ratio hCT/hAmylin funct. [4, 7] |
| --- | --- | --- | --- | --- | --- | --- | --- | --- |
| CC[C@H](C)[C@H](NC(=O)[C@H](C)NC(=O)CNC(=O)[C@H](Cc1ccccc1)NC(=O)[C@H](CC(N)=O)NC(=O)[C@@H]1CCCN1C(=O)[C@H](CO)NC(=O)[C@H](CO)NC(=O)[C@H](Cc1c[nH]cn1)NC(=O)[C@H](CCCNC(=N)N)NC(=O)[C@H](CC(C)C)NC(=O)[C@H](Cc1ccccc1)NC(=O)[C@H](CCC(=O)O)NC(=O)[C@H](C)NC(=O)[C@H](CC(C)C)NC(=O)[C@H](CCCNC(=N)N)NC(=O)[C@H](CCC(N)=O)NC(=O)[C@@H](NC(=O)[C@H](C)NC(=O)[C@@H]1CSSC[C@H](NC(=O)[C@H](CCCCN)NC(=O)CC[C@H](NC(=O)CCCCCCCCCCCCCCCCCCC(=O)O)C(=O)O)C(=O)N[C@@H](CC(N)=O)C(=O)N[C@@H]([C@@H](C)O)C(=O)N[C@@H](C)C(=O)N[C@@H]([C@@H](C)O)C(=O)N1)[C@@H](C)O)C(=O)N1CCC[C@H]1C(=O)N[C@@H](CO)C(=O)N[C@@H](CO)C(=O)N[C@H](C(=O)N[C@@H](CC(N)=O)C(=O)N[C@H](C(=O)NCC(=O)N[C@@H](CO)C(=O)N[C@@H](CC(=O)O)C(=O)N[C@H](C(=O)N1CCC[C@H]1C(N)=O)[C@@H](C)O)C(C)C)[C@@H](C)O [Example 11] ({C20 diacid-γGlu}-KCNTATCATQRLAEFLRHSSPNFGAIPSSTNVGSDTP-NH2; disulfide 2-7 (inferred)) | 45 | 0.112 | 0.101 | 0.9 | 0.9 | 0.9 | 0.12 | 0.9 |
| CC[C@H](C)[C@H](NC(=O)[C@H](C)NC(=O)CNC(=O)[C@H](Cc1ccccc1)NC(=O)[C@H](CC(N)=O)NC(=O)[C@@H]1CCCN1C(=O)[C@H](CO)NC(=O)[C@H](CO)NC(=O)[C@H](Cc1c[nH]cn1)NC(=O)[C@H](CCCNC(=N)N)NC(=O)[C@H](CC(C)C)NC(=O)[C@H](Cc1ccccc1)NC(=O)[C@H](Cc1c[nH]cn1)NC(=O)[C@H](C)NC(=O)[C@H](CC(C)C)NC(=O)[C@H](CCCNC(=N)N)NC(=O)[C@H](CCC(N)=O)NC(=O)[C@@H](NC(=O)[C@H](C)NC(=O)[C@@H]1CSSC[C@H](NC(=O)[C@@H](N)CCCCNC(=O)CC[C@H](NC(=O)CCCCCCCCCCCCCCCCCCC(=O)O)C(=O)O)C(=O)N[C@@H](CC(N)=O)C(=O)N[C@@H]([C@@H](C)O)C(=O)N[C@@H](C)C(=O)N[C@@H]([C@@H](C)O)C(=O)N1)[C@@H](C)O)C(=O)N1CCC[C@H]1C(=O)N[C@@H](CO)C(=O)N[C@@H](CO)C(=O)N[C@H](C(=O)N1CCC[C@H]1C(=O)N[C@H](C(=O)NCC(=O)N[C@@H](CO)C(=O)N[C@@H](CC(N)=O)C(=O)N[C@H](C(=O)N[C@@H](Cc1ccc(O)cc1)C(N)=O)[C@@H](C)O)C(C)C)[C@@H](C)O [Example 62] (H-K([γGlu-C20 diacid])CNTATCATQRLAHFLRHSSPNFGAIPSSTPVGSNTY-NH2; disulfide 2-7; N-terminus assumed) | 45 | 0.539 | 6.17 |  | 12.3 | 12.3 | 0.044 | 12.3 |

More lines, in order of falling EC50 [2], values ahead:

| ThT pH 4.0 lag time (h) [1] [h] | EC50 [2] [nM] | IC50 [3] [nM] | Ratio hCT/hAmylin funct. ([4]; hCTR funct. EC50 / hAmylin-R funct. EC50) | Ratio hCT/hAmylin funct. [4, 5] | Ratio hCT/hAmylin funct. [4, 6] | EC50 [4] [nM] | Ratio hCT/hAmylin funct. [4, 7] | SMILES |
| --- | --- | --- | --- | --- | --- | --- | --- | --- |
| 45 | 3.64 | 42.5 |  | 24.9 | 24.9 | 0.146 | 24.9 | CC[C@H](C)[C@H](NC(=O)[C@H](C)NC(=O)CNC(=O)[C@H](Cc1ccccc1)NC(=O)[C@H](CC(N)=O)NC(=O)[C@@H]1CCCN1C(=O)[C@H](CO)NC(=O)[C@H](CO)NC(=O)[C@H](Cc1c[nH]cn1)NC(=O)[C@H](CCCNC(=N)N)NC(=O)[C@H](CC(C)C)NC(=O)[C@H](Cc1ccccc1)NC(=O)[C@H](CC(=O)O)NC(=O)[C@H](C)NC(=O)[C@H](CC(C)C)NC(=O)[C@H](CCCNC(=N)N)NC(=O)[C@H](CCC(N)=O)NC(=O)[C@@H](NC(=O)[C@H](C)NC(=O)[C@@H]1CSSC[C@H](NC(=O)[C@@H](N)CCCCNC(=O)CC[C@H](NC(=O)CCCCCCCCCCCCCCCCCCC(=O)O)C(=O)O)C(=O)N[C@@H](CC(N)=O)C(=O)N[C@@H]([C@@H](C)O)C(=O)N[C@@H](C)C(=O)N[C@@H]([C@@H](C)O)C(=O)N1)[C@@H](C)O)C(=O)N1CCC[C@H]1C(=O)N[C@@H](CO)C(=O)N[C@@H](CO)C(=O)N[C@H](C(=O)N[C@@H](CC(N)=O)C(=O)N[C@H](C(=O)NCC(=O)N1CCC[C@H]1C(=O)N[C@@H](CCCNC(=N)N)C(=O)N[C@H](C(=O)N[C@@H](Cc1ccc(O)cc1)C(N)=O)[C@@H](C)O)C(C)C)[C@@H](C)O [Example 129] (H-K([γGlu-C20 diacid])CNTATCATQRLADFLRHSSPNFGAIPSSTNVGPRTY-NH2; disulfide 2-7 (inferred); N-terminus assumed) |
| 45 | 2.52 | 19.3 |  | 11.6 | 11.6 | 0.217 | 11.6 | CC[C@H](C)[C@H](NC(=O)[C@H](C)NC(=O)CNC(=O)[C@H](Cc1ccccc1)NC(=O)[C@H](CC(N)=O)NC(=O)[C@@H]1CCCN1C(=O)[C@H](CO)NC(=O)[C@H](CO)NC(=O)[C@H](Cc1c[nH]cn1)NC(=O)[C@H](CCCNC(=N)N)NC(=O)[C@H](CC(C)C)NC(=O)[C@H](Cc1ccccc1)NC(=O)[C@H](CC(N)=O)NC(=O)[C@H](C)NC(=O)[C@H](CC(C)C)NC(=O)[C@H](CCCNC(=N)N)NC(=O)[C@H](CCC(N)=O)NC(=O)[C@@H](NC(=O)[C@H](C)NC(=O)[C@@H]1CSSC[C@H](NC(=O)[C@H](CCCCN)NC(=O)CC[C@H](NC(=O)CCCCCCCCCCCCCCCCCCC(=O)O)C(=O)O)C(=O)N[C@@H](CC(N)=O)C(=O)N[C@@H]([C@@H](C)O)C(=O)N[C@@H](C)C(=O)N[C@@H]([C@@H](C)O)C(=O)N1)[C@@H](C)O)C(=O)N1CCC[C@H]1C(=O)N[C@@H](CO)C(=O)N[C@@H](CO)C(=O)N[C@H](C(=O)N[C@@H](CC(N)=O)C(=O)N[C@H](C(=O)NCC(=O)N[C@@H](CCCNC(=N)N)C(=O)N[C@@H](CC(N)=O)C(=O)N[C@H](C(=O)N[C@@H](Cc1ccc(O)cc1)C(N)=O)[C@@H](C)O)C(C)C)[C@@H](C)O [Example 39] ({C20 diacid-γGlu}-KCNTATCATQRLANFLRHSSPNFGAIPSSTNVGRNTY-NH2; disulfide 2-7) |
| 40 | 2.03 | 12.5 |  | 9.2 | 9.2 | 0.22 | 9.2 | CC[C@H](C)[C@H](NC(=O)[C@H](C)NC(=O)CNC(=O)[C@H](Cc1ccccc1)NC(=O)[C@H](CC(N)=O)NC(=O)[C@@H]1CCCN1C(=O)[C@H](CO)NC(=O)[C@H](CO)NC(=O)[C@H](Cc1c[nH]cn1)NC(=O)[C@H](CCCNC(=N)N)NC(=O)[C@H](CC(C)C)NC(=O)[C@H](Cc1ccccc1)NC(=O)[C@H](CC(N)=O)NC(=O)[C@H](C)NC(=O)[C@H](CC(C)C)NC(=O)[C@H](CCCNC(=N)N)NC(=O)[C@H](CCC(N)=O)NC(=O)[C@@H](NC(=O)[C@H](C)NC(=O)[C@@H]1CSSC[C@H](NC(=O)[C@H](CCCCN)NC(=O)CC[C@H](NC(=O)CCCCCCCCCCCCCCCCCCC(=O)O)C(=O)O)C(=O)N[C@@H](CC(N)=O)C(=O)N[C@@H]([C@@H](C)O)C(=O)N[C@@H](C)C(=O)N[C@@H]([C@@H](C)O)C(=O)N1)[C@@H](C)O)C(=O)N1CCC[C@H]1C(=O)N[C@@H](CO)C(=O)N[C@@H](CO)C(=O)N[C@H](C(=O)N1CCC[C@H]1C(=O)N[C@H](C(=O)NCC(=O)N[C@@H](CO)C(=O)N[C@@H](CCC(=O)O)C(=O)N[C@H](C(=O)N[C@@H](Cc1ccc(O)cc1)C(N)=O)[C@@H](C)O)C(C)C)[C@@H](C)O [Example 28] ({C20 diacid-γGlu}-KCNTATCATQRLANFLRHSSPNFGAIPSSTPVGSETY-NH2; disulfide 2-7 (inferred)) |
